The subject of data set [1] is Bscl2-GFP and Rtkn-GFP reporters in mouse embryonic stem (mES) cells. The data set can be described thus: ToxTracker genotoxicity assay, overall conclusion from Bscl2-GFP and Rtkn-GFP. The note with it: positive: >= 2-fold induction at one of 10, 25, 50% cytotoxicity, with or without S9; not genotoxic: <= […] at all. The procedure: This methodology uses a two step-approach.
Metabolic was evaluated by addition of S9 liver extract. […] Only GFP expression in intact single cells is determined.

Data set [2] concerns Rtkn-GFP reporter in mouse embryonic stem (mES) cells. Nature of the data set: ToxTracker genotoxicity assay, Rtkn-GFP reporter induction.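 Also: GFP reporter signal quantified solely in intact single cells.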
Procedure: (§1) The genotoxicity can be measured by the ToxTracker® assay (Toxys, Leiden, the Netherlands) as further described herein.
(§2) Genotoxicity of examples and comparatives was evaluated by the ToxTracker® assay (Toxys, Leiden, the Netherlands). The ToxTracker assay is a panel of several validated Green Fluorescent Protein (GFP)-based mouse embryonic stem (mES) reporter cell lines that can be used to identify the biological reactivity and potential carcinogenic properties of newly developed compounds in a single test. This methodology uses a two step-approach.
(§3) In the first step a dose range finding was performed using wild-type mES cells (strain B4418). 20 different concentrations for each compound was tested, starting at 10 mM in DMSO as highest concentration and nineteen consecutive 2-fold dilutions.
(§4) Genotoxicity was evaluated at 10, 25 and 50% cytotoxicity in absence and presence of rat S9 liver extract-based metabolizing systems (aroclor1254-induced rats, Moltox, Boone, NC, USA). The independent cell lines were seeded in 96-well cell culture plates, 24 h after seeding the cells in the 96-well plates, fresh ES cell medium containing the diluted test substance was added to the cells. For each tested compound, five concentrations are tested in 2-fold dilutions. The highest sample concentration will induce significant cytotoxicity (50-70%). In case of no or low cytotoxicity, 10 mM or the maximum soluble mixture concentration is used as maximum test concentration. Cytotoxicity is determined by cell count after 24 h exposure using a Guava easyCyte 10HT flow cytometer (Millipore).
(§5) GFP reporter induction is always compared to a vehicle control treatment.
(§6) All compounds were tested in at least three completely independent repeat experiments. Positive reference treatment with cisplatin (DNA damage) were included in all experiments. Metabolic was evaluated by addition of S9 liver extract. Cells are exposed to five concentrations of the test compound in the presence of S9 and required co-factors (RegenSysA+B, Moltox, Boone, NC, USA) for 3 h. After washing, cells are incubated for 24 h in fresh ES cell medium. Induction of the GFP reporters is determined after 24 h exposure using a Guava easyCyte 10HT flow cytometer (Millipore). Only GFP expression in intact single cells is determined. Mean GFP fluorescence and cell concentrations in each well is measured, which is used for cytotoxicity assessment. Data was analyzed using ToxPlot software (Toxys, Leiden, the Netherlands). The induction levels reported are at compound concentrations that induce 10%, 25% and 50% cytotoxicity after 3 h exposure in the presence of S9 rat liver extract and 24 h recovery or alternatively after 24 h exposure when not in the presence of S9 rat liver extract.
The test system of data set [3] is Bscl2-GFP reporter in mouse embryonic stem (mES) cells. The data set can be described thus: ToxTracker genotoxicity assay, Bscl2-GFP reporter induction.
Procedure: as §1, §2, §3, §4, §5, §6
[4] abbreviates: with S9 rat liver extract, concentration inducing 10% cytotoxicity, 3 h exposure, 24 h recovery.
The mark [5] stands for this setting: with S9 rat liver extract, concentration inducing 25% cytotoxicity, 3 h exposure, 24 h recovery.
Where [6] appears, read: with S9 rat liver extract, concentration inducing 50% cytotoxicity, 3 h exposure, 24 h recovery.
The mark [7] stands for this setting: without S9 rat liver extract, concentration inducing 10% cytotoxicity, 24 h exposure.
Where [8] appears, read: without S9 rat liver extract, concentration inducing 25% cytotoxicity, 24 h exposure.
Where [9] appears, read: without S9 rat liver extract, concentration inducing 50% cytotoxicity, 24 h exposure.

As to `O=C(CCN1CC1)OCC(CO)(COC(=O)CCN1CC1)COC(=O)CCN1CC1` [Comp Ex 5, pentaerythritol tris(3-(1-aziridinyl)propionate)], the “Genotoxicity test result (conclusion)” value in data set [1] is on record as “genotoxic”.

As for `CCCCOCC(CN1CC1)OC(=O)NC1CCC(CC2CCC(NC(=O)OC(COCCCC)CN3CC3)CC2)CC1` (stereo not shown) [Comp. Ex 4], the “Genotoxicity test result (conclusion)” value in data set [1] is on record as “genotoxic”. Besides, the Rtkn induction level in data set [2] (setting [4]) worked out at 1.1 fold; in data set [2] (setting [5]), 1.6 fold; in data set [2] (setting [6]) it was 1.9 fold; in data set [2] (setting [7]), 1.2 fold; in data set [2] (setting [8]), 1.5 fold; in data set [2] (setting [9]) it was 2.1 fold.

For the molecule `O=C(NCCCCCCn1c(=O)n(CCCCCCNC(=O)OCCN2CC2)c(=O)n(CCCCCCNC(=O)OCCN2CC2)c1=O)OCCN1CC1` [Comp. Ex. 2], in data set [1], the “Genotoxicity test result (conclusion)” value is “genotoxic”. The Rtkn induction level in data set [2] (setting [4]) was determined as 2.0 fold; in data set [2] (setting [5]) it was 3.4 fold; in data set [2] (setting [6]) it was 3.0 fold; in data set [2] (setting [7]), 1.7 fold; in data set [2] (setting [8]) it was 2.4 fold; in data set [2] (setting [9]), 2.8 fold.

On to `CC(CN1CC1)OC(=O)NCCCCCCn1c(=O)n(CCCCCCNC(=O)OC(C)CN2CC2)c(=O)n(CCCCCCNC(=O)OC(C)CN2CC2)c1=O` (stereo not shown) [Comp. Ex. 3], for which the “Genotoxicity test result (conclusion)” value in data set [1] is recorded as “genotoxic”. The Rtkn induction level in data set [2] (setting [4]) is given as 1.3 fold; in data set [2] (setting [5]) it was 2.1 fold; in data set [2] (setting [6]), 2.2 fold; in data set [2] (setting [7]) it was 1.3 fold; in data set [2] (setting [8]), 1.8 fold; in data set [2] (setting [9]), 1.9 fold.

For `CCCCOCC(CN1CC1)OC(=O)NCCCCCCn1c(=O)n(CCCCCCNC(=O)OC(COCCCC)CN2CC2)c(=O)n(CCCCCCNC(=O)OC(COCCCC)CN2CC2)c1=O` (stereo not shown) [Ex. 1], the “Genotoxicity test result (conclusion)” value in data set [1] is “non-genotoxic”. In addition, the Rtkn induction level turned out to be 1.0 fold in data set [2] (setting [4]); 1.1 fold in data set [2] (setting [5]); 1.1 fold in data set [2] (setting [6]); 1.0 fold in data set [2] (setting [7]); 1.0 fold in data set [2] (setting [8]); 0.9 fold in data set [2] (setting [9]).

In the case of `CCCCCCCCCC(=O)OCC(CN1CC1)OC(=O)NCCCCCCn1c(=O)n(CCCCCCNC(=O)OC(COC(=O)CCCCCCCCC)CN2CC2)c(=O)n(CCCCCCNC(=O)OC(COC(=O)CCCCCCCCC)CN2CC2)c1=O` (stereo not shown) [Ex. 3], the “Genotoxicity test result (conclusion)” value in data set [1] is “non-genotoxic”. Besides, the “Bscl 2 induction level” value in data set [3] (setting [4]) was determined as 1.1 fold; in data set [3] (setting [5]), 1.2 fold; in data set [3] (setting [6]), 1.2 fold; in data set [3] (setting [7]) it was 1.1 fold; in data set [3] (setting [8]), 1.2 fold; in data set [3] (setting [9]), 1.4 fold. For the same molecule, the Rtkn induction level is 1.3 fold in data set [2] (setting [4]); 1.5 fold in data set [2] (setting [5]); 1.5 fold in data set [2] (setting [6]); 1.3 fold in data set [2] (setting [7]); 1.5 fold in data set [2] (setting [8]); 1.5 fold in data set [2] (setting [9]).

With `CCCCOCC(CN1CC1)OC(=O)NCCCCCC/N=c1\oc(=O)n(CCCCCCNC(=O)OC(COCCCC)CN2CC2)c(=O)n1CCCCCCNC(=O)OC(COCCCC)CN1CC1` (stereo not shown) [Ex. 5], the “Genotoxicity test result (conclusion)” value in data set [1] was “non-genotoxic”. Moreover, the Rtkn induction level is given as 1.0 fold in data set [2] (setting [4]); 0.9 fold in data set [2] (setting [5]); 1.0 fold in data set [2] (setting [6]); 1.0 fold in data set [2] (setting [7]); 1.1 fold in data set [2] (setting [8]); 1.0 fold in data set [2] (setting [9]).
